# Results taken from patent US12281084B2, “Acetyl-CoA synthetase 2 (ACSS2) inhibitors and methods using same” (The Wistar Institute, priority 2019, dated 2025).
# System: BT474 cells
# Test: 13C2-acetate tracing in BT474 cells
# Type: cell-based, human
# Description: All metabolomic experiments were performed in serum-like modified Eagle's medium (SMEM). SMEM contains 54 different nutrients that are found in the bloodstream at concentrations that are physiologically relevant to humans. SMEM was supplemented with 10% or 1% fetal bovine serum (FBS; Life Technologies). Cells were grown in normoxia (atmospheric oxygen) or hypoxia (1% oxygen) while being incubated in uniformly labeled ^13C2-acetate (0.100 mM; Cambridge Isotope Laboratories). Lengths of incubation are described in the figure legends. For extraction of metabolites from cultured cells, SMEM medium was aspirated and cells were washed once in ice-cold PBS. Metabolites were extracted by adding a solution of LC-MS grade methanol/acetonitrile/water (5:3:2) to the well. Plates were incubated at 4° C. for 5 minutes on a rocker and then the extraction solution was collected. The metabolite extract was cleared by centrifugation at 15,000×g for 10 minutes at 4° C. Supernatants were transferred to LC-MS silanized glass vials with PTFE caps and either run immediately on the LC-MS or stored at −80° C. […]
# LC-MS analysis was performed on a Q Exactive Hybrid Quadrupole-Orbitrap HF-X MS (ThermoFisher Scientific) equipped with a HESI II probe and coupled to a Vanquish Horizon UHPLC system (ThermoFisher Scientific). […] Samples were analyzed in full MS scan with polarity switching at scan range 65 to 975 m/z; 120,000 resolution; automated gain control (AGC) target of 1E6; and maximum injection time (max IT) of 100 milliseconds. Identification and quantitation of metabolites was performed using an annotated compound library and TraceFinder 4.1 software. […]
# The ^13C2-acetate tracer studies were repeated in BT474 and MDA-MB-468 cells and polar metabolites were isolated in order to analyze carbon-13 labeling of the cytosolic metabolite UDP-N-acetylglucosamine (UDP-GlcNAc) and the mitochondrial metabolite citrate. Citrate is a readout of ACSS1 and ACSS3 activity in the cells since they are the mitochondria localized AcCoA synthetase family members (FIG. 11A). […]
compound,measurement,setting,value
"CCn1c(C(O)(c2ccccc2)c2ccccc2)nc2ccc(C(=O)NC[C@@H](C)O)cc21 [VY-3-135, (R)-1-ethyl-2-(hydroxydiphenylmethyl)-N-(2-hydroxypropyl)-1H-benzo[d]imidazole-6-carboxamide]",incorporation of 13C2-acetate into UDP-GlcNAc,BT474 cells (FIG. 11C),able to block incorporation of ^13C2-acetate into UDP-GlcNAc to nearly the levels of unlabeled cells
same,incorporation of 13C2-acetate into citrate,"BT474 cells, H1, 24 hr (FIG. 2D), readout of ACSS1 and ACSS3",did not decrease incorporation of ^13C2-acetate into citrate
same,use of acetate as a substrate for fatty acid synthesis (13C2-acetate into palmitate),"BT474 cells, hypoxia and low lipid medium, 24 hours (FIG. 2C)",markedly inhibits the use of acetate as a substrate for fatty acid synthesis at low nanomolar concentrations
